The source of these data is US4752469A, “Potentiators of beta-lactam antibiotics” (E. R. Squibb & Sons, Inc., priority 1984, dated 1988).

In brackets after ≈: the same amount, converted by molar mass. Entries after “also recorded” stand apart in the source; their conditions may differ. Read-outs that look alike come from different tables or passages of the source. Starred links: 1 amine or outer side, 2 acyl side, 3 side chain; linkers in the order of their positions; H or OH if unused. Non-standard residues stand in square brackets, D forms with d. Residues, ends and D or L forms follow the SMILES beside them. ξ: configuration not given here. *: point of attachment. X1 = CC(=O)N[C@H]1[C@H](OC2CC(C(=O)[*:2])N([*:1])C2CO)O[C@H](CO)[C@@H](OS(=O)(=O)O)[C@@H]1O; βGlcNAc = CC(=O)N[C@@H]1[C@@H](O)[C@H](O)[C@@H](CO)O[C@H]1*; ξE = NC(CCC(=O)O)C(=O)O; ξK = NCCCCC(N)C(=O)O; ξT = CC(O)C(N)C(=O)O; ξS = NC(CO)C(=O)O

Assay [1] has as its system Proteus rettgeri SC 8479. Particulars: for potentiation of cell wall synthesis inhibitors other than β-lactams: Proteus rettgeri system; for potentiation of cell wall synthesis inhibitors other than β-lactams / potentiation of β-lactam antibiotics: in words; for potentiation of β-lactam antibiotics: vs. Proteus rettgeri. As to the method: (§1) The technique used was the double disk diffusion test, described by D. J. Krogstad and R. C. Moellering, Jr. in: Antibiotics in Laboratory Medicine, ed. V. Lorian, pps. 298-341, Williams and Wilkins, 1980. Disks contained 30 μg of compound, and unless noted otherwise, were placed adjacent to each other on the surface of a nutrient agar seeded with a test organism in a Petri dish.

Another assay concerns Escherichia coli SC 8294. Particulars: for Interaction: Escherichia coli SC 8294; for potentiation of β-lactam antibiotics: vs. Escherichia coli, in words. As to the method: as §1
Another assay relates to gram-negative bacteria. The assay is described as follows: enhancement of antibacterial activity of β-lactam antibiotics (general statement). Particulars: e.g., aztreonam, ampicillin, piperacillin and moxalactam, in words. Type of assay: cell-based. The text has this:
Moellering, Jr. in: Antibiotics in Laboratory Medicine, ed. V. Lorian, pps. 298-341, Williams and Wilkins, 1980.

The test system of assay [2] is Salmonella typhosa SC 1195.
Assay [3] relates to Staphylococcus aureus SC 1276. Particulars: agar dilution. Background: Agar dilution tests growth on a series of plates holding different concentrations.
Assay [4] deals with Proteus rettgeri SC 8479. To be noted: agar dilution.
The test system of assay [5] is Proteus mirabilis SC 3855. To be noted: agar dilution.
A further assay has as its system Proteus vulqaris SC 9416. Particulars: agar dilution.
Setting [6] is: 30 μg/disc compound plus Cefoxitin 30 μg/disc.
Setting [7] is: 30 μg/disc compound plus Cephalothin 30 μg/disc.
Setting [8] is: 30 μg/disc compound plus Mecillinam 10 μg/disc.
The mark [9] stands for this setting: 30 μg/disc compound plus N--f-thienamycin 30 μg/disc.

For `CC(=O)N[C@@H]1[C@H](O[C@@H]2C[C@@H](C(=O)N[C@@H](CCCCN)C(=O)N[C@H](C(=O)N[C@@H](CO)C(=O)O)[C@@H](C)O[C@@H]3O[C@@H](CO)[C@@H](O)[C@H](O)[C@@H]3NC(C)=O)NC2CO)O[C@@H](CO)[C@@H](OS(=O)(=O)O)[C@@H]1O` (some centres unmarked) [SQ 28,504], the “potentiation of cell wall synthesis inhibitors other than β-lactams” value in the assay on Proteus rettgeri SC 8479 [1] was “potentiation occurs with cell wall synthesis inhibitors other than β-lactams”. For the same molecule, the “potentiation of β-lactam antibiotics” value in the assay on Proteus rettgeri SC 8479 [1] and with Escherichia coli SC 8294 was “potentiate the activity of β-lactam antibiotics” in each case. Further, the Interaction entry in the assay with Escherichia coli SC 8294 (setting [6]), in the assay with Escherichia coli SC 8294 (setting [7]), with Escherichia coli SC 8294 (setting [8]) and with Escherichia coli SC 8294 (setting [9]) was “I” each time. Moreover, the “enhancement of the antibacterial activity of β-lactam antibiotics” value in the assay on gram-negative bacteria was “potentiates the antibiotic activity of several β-lactam antibiotics; also recorded: enhance the antibacterial activity of β-lactam antibiotics”.
Broadly, the MIC is the least concentration at which growth counts as inhibited. A lower MIC goes with greater potency. For the molecule `CC(=O)N[C@H]1[C@H](OC2CC(C(=O)NC(CCCCN)C(=O)NC(C(=O)NC(CO)C(=O)NC(CCC(=O)O)C(=O)NC(CO)C(=O)O)C(C)O[C@@H]3O[C@H](CO)[C@@H](O)[C@H](O)[C@H]3NC(C)=O)NC2CO)O[C@H](CO)[C@@H](OS(=O)(=O)O)[C@@H]1O` (some centres unmarked) [SQ 28,546] (H-[X1][ξK][ξT](βGlcNAc)[ξS][ξE][ξS]-OH), the MIC in assay [2] is 25.0 mg/L (≈ 21.2 µM); in assay [3], above 100 mg/L; against Proteus rettgeri SC 8479 [4], 12.5 mg/L (≈ 10.6 µM); in assay [5], 25 mg/L (≈ 21.2 µM); in the assay with Proteus vulqaris SC 9416, 12.5 mg/L (≈ 10.6 µM). Besides, the Interaction entry with Proteus rettgeri SC 8479 [1] (30 μg/disc compound plus Vancomycin 30 μg/disc, Proteus rettgeri SC 8479) is on record as “I”; in the assay with Escherichia coli SC 8294 (30 μg/disc compound plus Azocillin 30 μg/disc), “I”; with Escherichia coli SC 8294 (30 μg/disc compound plus Cefamandole 30 μg/disc), “I”; in the assay on Escherichia coli SC 8294 (30 μg/disc compound plus Cefotaxime 30 μg/disc) it was “I”; in the assay with Escherichia coli SC 8294 (setting [6]) it was “I”; in the assay on Escherichia coli SC 8294 (setting [7]) it was “I”. The Interaction entry in the assay on Escherichia coli SC 8294 (30 μg/disc compound plus Diumycin 30 μg/disc), in the assay with Escherichia coli SC 8294 (30 μg/disc compound plus Fosfonomycin 30 μg/disc), in the assay with Escherichia coli SC 8294 (setting [8]), with Escherichia coli SC 8294 (setting [9]), in the assay on Escherichia coli SC 8294 (30 μg/disc compound plus Penicillin G 100 Units/disc) and with Escherichia coli SC 8294 (30 μg/disc compound plus Vancomycin 30 μg/disc) was “I” in each case. Besides, the “potentiation of cell wall synthesis inhibitors other than β-lactams” value in the assay with Proteus rettgeri SC 8479 [1] is on record as “potentiation occurs with cell wall synthesis inhibitors other than β-lactams”. The “potentiation of β-lactam antibiotics” value with Proteus rettgeri SC 8479 [1] and in the assay on Escherichia coli SC 8294 was “potentiate the activity of β-lactam antibiotics” in each case. Further, the “enhancement of the antibacterial activity of β-lactam antibiotics” value with gram-negative bacteria is listed as “potentiates the antibiotic activity of several β-lactam antibiotics; also recorded: enhance the antibacterial activity of β-lactam antibiotics”.
